Results published in US20230097700A1, “AZETIDINE SULFONAMIDE COMPOUND” (DAIICHI SANKYO COMPANY, LIMITED, priority 2019, published 2023).
Counter-ions that a name gives are not always drawn.

Each compound was assayed on activated T cells (CD4+ T cells derived from the mouse spleen) (assay: Incorporation of 3H-thymidine into activated T cells). Conditions: 3H-thymidine incorporation, mouse spleen CD4+ T cells activated with Dynabeads Mouse T-Activator CD3/CD28.
Format: cell-based, mouse (C57BL/6J)
Description: Effect of a test substance on incorporation of ^3H-thymidine was evaluated using T cells derived from the mouse spleen. The spleen was excised out from a C57BL/6J mouse euthanized, cut into pieces, ground on a cell strainer (40 μm mesh) and centrifuged to collect spleen cells. CD4+ T cells were isolated from the spleen cells by use of EasySep Mouse CD4+ T cell isolation kit (STEMCELL Technologies). CD4+ T cells were seeded to a 96-well round-bottom plate. Test substance dissolved in DMSO (dimethyl sulfoxide) or vehicle (DMSO) was added to culture medium and Dynabeads Mouse T-Activator CD3/CD28 (Thermo Fisher Scientific Inc.) was added. Culture was carried out at 37° C. in 5% CO2. After culture was carried out for 24 hours, ^3H-thymidine (PerkinElmer) diluted with the culture medium was added to individual wells. Culture was further carried out overnight at 37° C. in 5% CO2. In order to measure ^3H-thymidine incorporated in nuclei of the cells, the cells were collected on a filter plate UniFilter-96 GF/B (PerkinElmer) by use of a FilterMate Universal Harvester (PerkinElmer). After the filter plate was placed in a dryer and allowed to stand still for 2 hours or more, scintillation cocktail MicroScint-O (PerkinElmer) was added and radioactivity was measured by TopCount NXT (PerkinElmer). With the radioactivity of a group not containing a test substance being specified as 100% and the radioactivity of a group not activated being specified as 0%, relative radioactivity values of individual wells to which the test substance was added (proliferation rate, % of vehicle) were calculated. The values of “% of vehicle” were entered in analysis software Prism (Version 4.03, GraphPad Software). “Nonlinear regression Log (inhibitor) vs reaction variable tilt” was selected and sigmoid type-fitting (Bottom=0, Top=100) was carried out to calculate 50% inhibition concentration (IC50). The compound of the present invention suppresses ^3H-thymidine incorporation in activated T cells.

Q: `N[C@@H](Cc1cccc(S(=O)(=O)N2CC(Oc3ccc(F)cc3)(c3ccc(Cl)cc3)C2)c1)C(=O)O` [Example 54, (2S)-2-Amino-3-(3-{[3-(4-chlorophenyl)-3-(4-fluorophenoxy)azetidin-1-yl]sulfonyl}phenyl)propanoic acid monoformate] was tested. Which IC50 did it give?
A: 4.8 nM

Q: For `N[C@@H](Cc1cccc(S(=O)(=O)N2CC(Oc3cccc(F)c3)(c3ccc(Cl)cc3)C2)c1)C(=O)O` [Example 55, (2S)-2-Amino-3-(3-{[3-(4-chlorophenyl)-3-(3-fluorophenoxy)azetidin-1-yl]sulfonyl}phenyl)propanoic acid monoformate], which IC50 is on record?
A: 7.8 nM

Q: For `CCn1cc(OC2(c3ccc(F)cc3)CN(S(=O)(=O)c3cccc(C[C@H](N)C(=O)O)c3)C2)cn1` [Example 56, (2S)-2-Amino-3-[3-({3-[(1-ethyl-1H-pyrazol-4-yl)oxy]-3-(4-fluorophenyl)azetidin-1-yl)sulfonyl)phenyl]propanoic acid dihydrochloride], which IC50 is on record?
A: 240 nM

Q: Which IC50 does the source give for `COc1ccc(OC2(c3ccc(F)cc3)CN(S(=O)(=O)c3cccc(C[C@H](N)C(=O)O)c3)C2)cn1` [Example 57, (2S)-2-Amino-3-[3-({3-(4-fluorophenyl)-3-[(6-methoxypyridin-3-yl)oxy]azetidin-1-yl}sulfonyl)phenyl]propanoic acid monoformate] here?
A: 16 nM

Q: `N[C@@H](Cc1cccc(S(=O)(=O)N2CC(Oc3ccc4c(c3)COB4O)(c3ccc(F)cc3)C2)c1)C(=O)O` [Example 58, (2S)-2-Amino-3-[3-({3-(4-fluorophenyl)-3-[(1-hydroxy-1,3-dihydro-2,1-benzoxaborol-5-yl)oxy]azetidin-1-yl)sulfonyl)phenyl]propanoic acid monoformate] was tested. Which IC50 did it give?
A: 16 nM

Q: `Cc1ccc(C2(Oc3cccc(F)c3)CN(S(=O)(=O)c3cccc(C[C@H](N)C(=O)O)c3)C2)cc1` [Example 59, (2S)-2-Amino-3-(3-{[3-(3-fluorophenoxy)-3-(4-methylphenyl)azetidin-1-yl]sulfonyl}phenyl)propanoic acid monoformate] was tested. Which IC50 did it give?
A: 18 nM

Q: With `CC(=O)c1ccc(OC2(c3ccc(F)cn3)CN(S(=O)(=O)c3cccc(C[C@H](N)C(=O)O)c3)C2)cc1` [Example 60, (2S)-3-(3-{[3-(4-acetylphenoxy)-3-(5-fluoropyridin-2-yl)azetidin-1-yl]sulfonyl}phenyl)-2-aminopropanoic acid dihydrochloride] as the compound, how does the IC50 read?
A: 14 nM

Q: With `NC(=O)c1ccc(OC2(c3ccc(Cl)cc3)CN(S(=O)(=O)c3cccc(C[C@H](N)C(=O)O)c3)C2)cc1` [Example 61, (2S)-2-Amino-3-(3-{[3-(4-carbamoylphenoxy)-3-(4-chlorophenyl)azetidin-1-yl]sulfonyl}phenyl)propanoic acid monohydrochloride] as the compound, how does the IC50 read?
A: 9.9 nM

Q: `NC(=O)c1ccc(OC2(c3ccc(F)cc3)CN(S(=O)(=O)c3cccc(C[C@H](N)C(=O)O)c3)C2)cn1` [Example 86a, dihydrochloride] was tested. Which IC50 did it give?
A: 23 nM

Q: How did the IC50 turn out when `N#Cc1ccc(OC2(c3ccc(F)cc3)CN(S(=O)(=O)c3cccc(C[C@H](N)C(=O)O)c3)C2)cn1` [Example 86b, monoformate] was run?
A: 17 nM

Q: For `N[C@@H](Cc1cccc(S(=O)(=O)N2CC(Oc3ccc(Cl)cc3)(c3ccccc3)C2)c1)C(=O)O` [Example 87], which IC50 is on record?
A: 19 nM

Q: For `N[C@@H](Cc1cccc(S(=O)(=O)N2CC(Oc3ccccc3)(c3ccccc3)C2)c1)C(=O)O` [Example 88, (2S)-2-Amino-3-(3-{[3-(3-phenoxy)-3-phenylazetidin-1-yl]sulfonyl}phenyl)propanoic acid], which IC50 is on record?
A: 15 nM

Q: `N[C@@H](Cc1cccc(S(=O)(=O)N2CC(Oc3ccc4[nH]ncc4c3)(c3ccccc3)C2)c1)C(=O)O` [Example 90, (2S)-2-Amino-3-(3-{3-[(1H-indazol-5-yl)oxy]-3-phenylazetidin-1-sulfonyl}phenyl)propanoic acid] was tested. Which IC50 did it give?
A: 3.4 nM
